Source: patent US20240024292A1, “ATALUREN EYE DROP FORMULATION” (INSTITUT NATIONAL DE LA SANTÉ ET DE LA RECHERCHE MÉDICALE, priority 2020, published 2024)
≈ marks a conversion by molar mass, not a printed value. Entries after “also recorded” stand apart in the source; their conditions may differ.

Legend:
[1] = ophthalmic application, DMSO in association with dilute povidone-iodine; cited from earlier work
[2] = cited from earlier work
[3] = Forced degradation studies (acidic, alkaline, oxidative stress at 60° C.), HPLC quantification; type: physicochemical
Protocol: (§1) For each unit, ataluren was quantified using the liquid chromatography method adapted from the method described by Kong et al.. Analyses were performed on a Thermo Scientific Ultimate 3000 chromatogram system (Villebon-sur-Yvette, France) including a quaternary pump (LPG 3400A), an automatic sampler (WPS 3000TSL), a diode array detector (DAD 300016) with 5 cm flow cell, and the associated software used to record and interpret chromatograms (Chromeleon®, Version 8.0). The stationary phase consisted in a Kinetex® C18 column (250×4.6 mm; 5 μm, Phenomenex, Le Pecq, France). The mobile phase was a gradient mixture of 0.1% formic acid (A) and acetonitrile (B). The flow rate was maintained at 1 mL/min, and the gradient profile was as follows: t0-11 min: A=30% B=70%; t11-15 min A=70% B=30%. The injection volume was 50 μL. The drug absorbance for quantification was obtained at 276 nm.
[…] To mimic the potential photodegradation occurring prior or after drug administration, photolytic studies were carried out by exposing the drug solutions to direct UV-visible light with and without photocatalyst or photosensitizer (i.e. titanium oxide 1 g L-1, riboflavin 100 mg L-1). Photolysis experiments were performed using a QSUN-XE-1 (Q-Lab, Bolton, United Kingdom) light chamber equipped with a xenon lamp, which simulates natural sunlight in a wavelength range of 300-800 nm. […]

[4] = Photolysis under simulated sunlight, with and without photocatalyst or photosensitizer; type: physicochemical; conditions: for % remaining: Direct photolysis, visible ~119,600 lx, UVA 300-400 nm 66.5 W m^−2; for degradation in direct photolytic stress condition: direct light exposure
Protocol: as §1
The specificity was assessed by subjecting the ataluren 1% solubilized in DMSO (10%) and castor oil solutions to various forced degradation conditions: 0.1M hydrochloric acid (HCl), 0.1M sodium hydroxide (NaOH), 0.3% and 15% hydrogen peroxide (H2O2) for 24 h, 48 h, and 72 h at 60° C. To mimic the potential photodegradation occurring prior or after drug administration, photolytic studies were carried out by exposing the drug solutions to direct UV-visible light with and without photocatalyst or photosensitizer (i.e. titanium oxide 1 g L-1, riboflavin 100 mg L-1). Photolysis experiments were performed using a QSUN-XE-1 (Q-Lab, Bolton, United Kingdom) light chamber equipped with a xenon lamp, which simulates natural sunlight in a wavelength range of 300-800 nm. A Daylight-Q filter was used to simulate CIE Standard Illuminant D65 (Q-Lab) and irradiance was maintained constant (1.5 W m-2 at 420 nm). The measurements corresponded to a visible intensity of ˜119,600 1×, and a UVA intensity at 300-400 nm of 66.5 W m-2. For all the experiments the temperature was controlled and set at 25±0.5° C.

| appearance of degradation products ([3]; 15% hydrogen peroxide exposure) | degradation under stress ([3]; strong acidic, basic or 0.3% H2O2 conditions, after 7 days exposure) | SMILES | patients with mild irritation (stinging, tingling or burning at the application), without serious adverse effects [1] | solubility ([2]; 1:1 solution of DMSO: PBS pH 7.2) | solubility in aqueous buffers ([2]; aqueous buffers) | solubility in organic solvents ([2]; organic solvents such as dimethyl sulfoxide (DMSO)) | solubility in water ([2]; water) | % remaining ([4]; 30 min exposition) | % remaining ([4]; 60 min exposition) | % remaining ([4]; 180 min exposition) | % remaining ([4]; 360 min exposition) | degradation in direct photolytic stress condition [4] | degradation in direct photolytic stress condition ([4]; listed as Ataluren) | degradation under light with photocatalyst ([4]; in presence of photocatalyst agent (titanium oxide)) | degradation under light with photosensitizer ([4]; in the presence of riboflavin) |
| --- | --- | --- | --- | --- | --- | --- | --- | --- | --- | --- | --- | --- | --- | --- | --- |
|  |  | C[S+](C)[O-] [DMSO, dimethylsulfoxyde] | 11.8% |  |  |  |  |  |  |  |  |  |  |  |  |
| Degradation products appeared | not degraded | O=C(O)c1cccc(-c2noc(-c3ccccc3F)n2)c1 [ataluren, 3-(5-(2-fluorophenyl)-1,2,4-oxadiazol-3-yl)benzoic acid] |  | ~0.5 mg/mL (≈ 1760 µM) | sparingly soluble | soluble | very slightly soluble | 100.1% | 102.4% | 100.1% | 103.4% | not degraded | did not decrease | rapidly degraded; also recorded: decreased | This was not the case; also recorded: no degradation was observed |
